# Source: patent US20160250142A1, “INHALED AEROSOLIZED IMMUNO-CHEMOTHERAPY FOR THE TREATEMENT OF MDR TB” (priority 2013, published 2016)
# Several values for one entry are separate records, joined by “and”; a condition that tells them apart may be missing. Equal values may be shown once. Read-outs that look alike come from different tables or passages of the source.
# B1: Actimmune: Actimmune® (IFN-γ; Interferon gamma-1b), 100 μg/0.5 mL vial diluted 1:1400 (protein, UniProt P01579 24-161, looked up)
# Interferon gamma: QDPYVKEAENLKKYFNAGHSDVADNGTLFLGILKNWKEESDRKIMQSQIVSFYFKLFKNFKDDQSIQKSVETIKEDMNVKFFNSNKKKRDDFEKLTNYSVTDLNVQRKAIHELIQVMAELSPAAKTGKRKRSQMLFRG
# Columns and labels:
# [1] = format: in vivo, female C57BL/6 mice; details: number of animals
# Experimental: Detailed observations were recorded prior to dosing and prior to euthanasia.
# All animals survived to their scheduled euthanasia time point on Day 0 (1 hour or 8 hours post dosing). All animals were normal (no clinical abnormalities) prior to dosing on Day 0 and prior to euthanasia 1 hour or 8 hours post dosing.
# [2] = Plasma and lung drug levels in mice after MicroSprayer endotracheal delivery (LC/MS/MS); details: for concentration at 1 h / concentration at 8 h: female, C57BL/6, mouse; for Lung levels compared to plasma levels / Plasma and lung levels 8 hours post dose compared to 1 hour post dose: endotracheal delivery; for Lung Levels: 8 hour (Range): Table 14 summary, dose delivered 240/150/50 μg in 100 μL
# Experimental: Observations were taken at 1 and 8 hour time points within lung tissue as well as the plasma of individual animals.
# For microsprayer dosing via endotracheal administration, mice were anesthetized by Ketamine/Xylazine (K/X) sedation (50 mg/kg Ketamine and 5 mg/kg Xylazine) administered intraperitoneally (IP). […] A Bair Hugger warm air unit was used to keep animals warm during recovery from K/X anesthesia (i.e. after dosing).
# On Day 0, mice were endotracheally intubated with a MicroSprayer® Aerosolizer (Penn-Century™, Inc.; Wyndmoor, Pa.) and test articles were delivered in the airways at a dose volume of 100 μL/dose at various dose levels.
# Animals were used for collection of blood samples and the entire lung for plasma and drug level determinations. Each mouse was anesthetized with CO2/O2 and terminally bled via retro-orbital into tubes containing K2EDTA. Upon collection each blood sample was mixed by gentle inversion, placed on ice, and subsequently centrifuged to separate plasma. Plasma samples were processed on the day they were collected, or were snap frozen using liquid nitrogen and stored frozen (at or below −70° C.) until analyzed.
# Animals in Subgroup A were used for collection of blood samples for plasma drug level determinations at the 1 hour post dose time point following Day 0 dosing; samples were collected within ±3% of target time. Animals in Subgroup B were used for collection of blood samples for plasma drug level determinations at the 8 hour post dose time point following Day 0 dosing; samples were collected within ±3% of target time (Table 8).
# Immediately following each subgroups blood collection time point, each animal was euthanized using CO2 and the entire lung was collected for tissue drug level determinations (within 15 minutes after the blood sample), weighed, and snap-frozen. Lung samples were snap frozen using liquid nitrogen or dry ice and stored frozen (at or below −70° C.) until analyzed. […] Animals in Groups 1-3 had aerosol content (ng/mL), plasma content (ng/mL) and lung level (ng/g) assessed for parent using an appropriate LC/MS/MS method.
# [3] = NGI impactor test of nebulized respiratory solutions (aerosol particle size); format: physicochemical; details: fractions by HPLC
# Experimental: FIG. 1. Graphical representation of the NGI impactor test for Metronidazole respiratory solution (8 mg/mL).
# FIG. 2. Graphical representation of the NGI impactor test for Amikacin respiratory solution (200 mg/mL).
# FIG. 3. Graphical representation of the NGI impactor test for Levofloxacin respiratory solution (250 mg/mL).
# The nebulization drug formulations were nebulized and passed through an NGI impactor (Westech Corporation). These experiments show the fraction of drug in various stages of the impactor (FIGS. 1-3). It was shown that significant amounts of the drug compounds were obtained at the different stages, which corresponds to the respirable fraction that would be deposited in the lungs. The drug fractions were analyzed by HPLC.
# [4] = system: TB (Mycobacterium tuberculosis); details: reported for reference only; metronidazole MIC not established for TB; cited from earlier work
# [5] = Human IFN-γ levels in mouse lung and plasma after aerosol delivery (ELISA); format: in vivo, female C57BL/6 mice; details: for IFN-g Level in mouse plasma: plasma diluted 1:2, ELISA sensitivity <2 pg/mL; for IFN-g Level in lung homogenate: mouse lung homogenized in 10 mL buffer; for IFN-g Level in lung homogenate / ng of IFN-g per gm of tissue: individual animals; for ng of IFN-g per gm of tissue / ng of IFN-g per gm of tissue, Mean: mouse lung; for ng of IFN-g per gm of tissue, Mean: mean of 3
# Experimental: Actimmune® (IFN-γ; Interferon gamma-1b) was diluted in the dilution solution excipient as per manufacturer's directions. The contents of one (1) vial (100 μg/0.5 mL) were gently diluted to a final volume of 700 mL using the dilution solution excipient. This represented a 1:1400 dilution. Test articles A-C were supplied in a ready to use form and no additional formulations were required. All residual test articles were stored at room temperature (15-30° C.) or refrigerated (2-8° C.).
# [6] = lung, Lung levels 1 hour post dose (range), mice, endotracheal MicroSprayer, Subgroup A
# [7] = lung, Lung levels 8 hour post dose (range), mice, endotracheal MicroSprayer, Subgroup B
# [8] = plasma, Plasma levels 1 hour post dose (range), mice, endotracheal MicroSprayer, Subgroup A, 3 animals
# [9] = plasma, Plasma levels 8 hour post dose (range), mice, endotracheal MicroSprayer, Subgroup B, 3 animals
# [10] = mice, IT, 1 hr, individual animals
# [11] = mice, IT, 1 hr, individual animals, nominal dose 0.48/0.3/0.1 mg/animal (delivered about 50%)
# [12] = mice, IT, 8 hr, individual animals
# [13] = mice, IT, 8 hr, individual animals, nominal dose 0.48/0.3/0.1 mg/animal
# [14] = lung, Lung Concentration (μg/g) of Tissue, mice, IT, 1 hr, individual animals
# [15] = lung, Lung Concentration, mice, IT, 1 hr, individual animals
# [16] = plasma, Plasma Concentration, mice, IT, 1 hr, individual animals, nominal dose 0.48/0.3/0.1 mg/animal (delivered about 50%)
# [17] = plasma, Plasma Concentration, mice, IT, 8 hr, individual animals, nominal dose 0.48/0.3/0.1 mg/animal
# [18] = mice, endotracheal MicroSprayer, Subgroup B, 3 animals
Molecule,"ANIMALS ALIVE ([1]; Day 0, 1 hr post dose)","ANIMALS NORMAL ([1]; Day 0, 1 hr post dose)","ANIMALS ALIVE ([1]; Day 0, 8 hr post dose)","ANIMALS NORMAL ([1]; Day 0, 8 hr post dose)","concentration at 1 h [2, 6] [ng/g]","concentration at 8 h [2, 7] [ng/g]","concentration at 1 h [2, 8] [ng/mL]","concentration at 8 h [2, 9] [ng/mL]","Lung Concentration [2, 10]","Lung Concentration (μg/g) of Tissue [2, 10]","Plasma Concentration [2, 11]","Lung Concentration [2, 12]","Plasma Concentration [2, 13]",Lung levels compared to plasma levels ([2]; mice),Plasma and lung levels 8 hours post dose compared to 1 hour post dose ([2]; mice),Droplets produced on nebulization [3],Reported MIC [4],Lung Levels: 8 hour (Range) [2],"concentration at 1 h [2, 14] [ng/g]","concentration at 1 h [2, 15] [ng/g]",other results
NCC[C@H](O)C(=O)N[C@@H]1C[C@H](N)[C@@H](O[C@H]2O[C@H](CN)[C@@H](O)[C@H](O)[C@H]2O)[C@H](O)[C@H]1O[C@H]1O[C@H](CO)[C@@H](O)[C@H](N)[C@H]1O [Amikacin],6,3,3,3,3990 to 9480,351 to 3060,2300 to 7140,152 to 406,4830 ng/g and 9480 ng/g and 3990 ng/g,33.6 µg/g and 64.9 µg/g and 27.0 µg/g,7140 ng/mL and 4820 ng/mL and 2300 ng/mL,3060 ng/g and 443 ng/g and 351 ng/g,406 ng/mL and 156 ng/mL and 152 ng/mL,higher,decreased,droplets in the respirable range,0.5 μg/mL (500 ng/mL),,,,"Lung Concentration (μg/g) of Tissue [2, 12]: 19.0 µg/g and 3.05 µg/g and 1.99 µg/g"
Cc1ncc([N+](=O)[O-])n1CCO [Metronidazole],6,3,3,3,1070 to 1640,,1670 to 2290,42.3,1070 ng/g and 1270 ng/g,6.50 µg/g and 8.27 µg/g,1670 ng/mL and 1880 ng/mL,BQL,BQL,increased,decreased,droplets in the respirable range,"250 μg/mL in (250,000 ng/mL)",Not detected,11700,1640,"concentration at 1 h [2, 16]: 2290 ng/mL; concentration at 8 h [2, 17]: 42.3 ng/mL; Lung levels 8 hour post dose (range) ([2]; mice, endotracheal MicroSprayer, Subgroup B): not detectable; Plasma levels 8 hour post dose (range) [2, 18]: 42.3 ng/mL -"
C[C@H]1COc2c(N3CCN(C)CC3)c(F)cc3c(=O)c(C(=O)O)cn1c23 [Levofloxacin],6,3,3,3,1610 to 2270,1200,534 to 815,53,2270 ng/g and 1610 ng/g,16.9 µg/g and 10.4 µg/g,815 ng/mL and 534 ng/mL,BQL,BQL,increased,decreased,,,7590 ng/g - ng/g of lung tissue,13800,2140,"concentration at 8 h ([2]; lung, Lung Concentration (μg/g) of Tissue, mice, IT, 8 hr, individual animals): 7560 ng/g; concentration at 8 h ([2]; lung, Lung Concentration, mice, IT, 8 hr, individual animals): 1200 ng/g; concentration at 1 h [2, 16]: 556 ng/mL; concentration at 8 h [2, 17]: 53 ng/mL; Plasma levels 8 hour post dose (range) [2, 18]: 53.0 ng/mL; Plasma levels 8 hour post dose (range) ([2]; mice, endotracheal MicroSprayer, Subgroup B, 3 animals, listed as LEVOFLOXACIN): 53 ng/mL -"
B1,6,3,3,3,,,,,,,,,,,,,,,,,"IFN-g Level in mouse plasma ([5]; 1 hr post dose): not detectable and below detectable levels (BDL) and BDL^a and BDL; IFN-g Level in mouse plasma ([5]; 1 hr post dose, listed as INTERFERON-gamma): Not Detectable; IFN-g Level in mouse plasma ([5]; 8 hr post dose): not detectable and below detectable levels (BDL) and BDL; IFN-g Level in mouse plasma ([5]; 8 hr post dose, listed as INTERFERON-gamma): Not Detectable; Plasma and lung levels 8 hours post dose compared to 1 hour post dose ([5]; mice, endotracheal delivery): decreased; IFN-g Level in lung homogenate ([5]; 1 hr post dose): 1732.7 pg/mL and 1248.4 pg/mL and 1109.4 pg/mL; IFN-g Level in lung homogenate ([5]; 8 hr post dose): 1006.2 pg/mL and 1578.0 pg/mL and 1307.7 pg/mL; ng of IFN-g per gm of tissue ([5]; 1 hr post dose): 116.8 ng per gm of tissue and 87.9 ng per gm of tissue and 75.4 ng per gm of tissue; ng of IFN-g per gm of tissue, Mean ([5]; 1 hr post dose): 93.3 ng per gm of tissue; ng of IFN-g per gm of tissue ([5]; 8 hr post dose): 58.3 ng per gm of tissue and 72.2 ng per gm of tissue and 102.6 ng per gm of tissue; ng of IFN-g per gm of tissue, Mean ([5]; 8 hr post dose): 77.7 ng per gm of tissue"
